From patent publication US8476197B2, “Aminopropenoates as fungicides” (priority 2009, dated 2013)
Marks after values point to notes of the source that are not given here.

Details: pH 2.3

Row | Structure (SMILES) | Log P
1 | CNC(=O)C(C#N)=C(NC(C)C(C)C)c1cccnc1Cl (stereo not drawn) [Compound 989] | 2.41^[c]; 2.41^[b]
2 | CCOC(=O)C(C#N)=C(Nc1ccccc1SC)c1ccc(Cl)nc1Cl [Compound 360] | 3.97

Same assay, conditions: pH 2.7

Row | Structure (SMILES) | Log P
3 | CCOC(=O)C(C#N)=C(NCc1ncccc1Cl)c1cccnc1Cl [Compound 1413] | 2.77^[a]
4 | CC(C)[C@H](C)N/C(=C(/C#N)C(=O)NC1COC1)c1cn(C)nc1C(F)F [Compound 1298] | 1.84^[a]
5 | CCOC(=O)C(C#N)=C(NC(C)c1ccccn1)c1c(C(F)F)nn(C)c1F (stereo not drawn) [Compound 316] | 2.73^[a]
6 | C=CC(COCc1ccccc1)NC(=C(C#N)C(=O)OCC)c1cccnc1Cl (stereo not drawn) [Compound 1197] | 3.8^[a]
7 | COC(=O)C(C#N)=C(NC(C)c1ccccc1Cl)c1cccnc1Cl (stereo not drawn) [Compound 375] | 3.19^[a]
8 | CCOC(=O)C(C#N)=C(NCc1ccc(C)c(C)n1)c1cn(C)nc1C(Cl)Cl [Compound 1575] | 2.07^[a]
9 | CCOC(=O)C(C#N)=C(Nc1ccccc1SC)c1c(C)nn(C)c1F [Compound 354] | 3.21^[a]
10 | CCOC(=O)C(C#N)=C(NC(C)Cc1c[nH]c2ccccc12)c1c(C)nn(C)c1F (racemic) [Compound 46] | 3.07^[a]
11 | CCOC(=O)C(C#N)=C(NC(C)C1=NOCCO1)c1cccnc1Cl (stereo not drawn) [Compound 1117] | 2.11^[a]
12 | CCCC(CC)NC(=C(C#N)C(=O)OCC)c1cn(C)nc1C(F)F (stereo not drawn) [Compound 1343] | 3.51^[a]
13 | CCOC(=O)C(C#N)=C(NC1C2CCCCC21)c1cn(C)nc1C(F)F (stereo not drawn) [Compound 1131] | 3.44^[a]
14 | CCOC(=O)C1(NC(=C(C#N)C(=O)OC)c2cccnc2Cl)CC1 [Compound 623] | 1.66^[a]
15 | CCOC(=O)C(C#N)=C(NC(C)c1nc(C)c(C)s1)c1cn(C)nc1C(F)(F)F (stereo not drawn) [Compound 64] | 3.48^[a]
16 | CCOC(=O)C(C#N)=C(NC(C)c1nccs1)c1cn(C)nc1CC (stereo not drawn) [Compound 1213] | 2.35^[a]
17 | CCOC(=O)C(C#N)=C(NCc1nccs1)c1cccnc1Cl [Compound 66] | 2.07^[a]
18 | CCOC(=O)C(C#N)=C(NC(C)COC)c1sccc1Br (stereo not drawn) [Compound 734] | 3.21^[a]
19 | CCOC(=O)C(C#N)=C(NC(C)c1ccccn1)c1conc1C (stereo not drawn) [Compound 82] | 2.36^[a]

Row | Structure (SMILES) | Log P
20 | CCOC(=O)C(C#N)=C(NC(C)C(C)Sc1ccccc1)c1cn(C)nc1C(F)F (stereo not drawn) [Compound 737] | 3.87^[a]
21 | CCOCC(NC(=C(C#N)C(=O)OC)c1cccnc1Cl)C(C)C (stereo not drawn) [Compound 627] | 3.11^[a]
22 | CCOC(=O)C(C#N)=C(NC1(c2ccccc2)CC1)c1cn(C)nc1C(F)F [Compound 1364] | 3.21^[a]
23 | CCOC(=O)C(C#N)=C(NC(C)c1ccc(C(F)(F)F)cn1)c1cccnc1Cl (mixture of isomers) [Compound 285] | 3.5^[a]
24 | CCOC(=O)C(C#N)=C(NC(C)C(C)Sc1ccccc1)c1cccnc1Cl (stereo not drawn) [Compound 1159] | 4.13^[a]
25 | CC(C)C(C)NC(=C(C#N)C(=O)N1CCCC1)c1cccnc1Cl (stereo not drawn) [Compound 1491] | 3.02^[a]
26 | CCOC(=O)C(C#N)=C(NC(C)c1ccn(C)n1)c1cccnc1C(F)F (racemic) [Compound 263] | 2.18^[a]
27 | CCOC(=O)C(C#N)=C(Nc1ccccc1SC(F)(F)C(F)Cl)c1cc(C)oc1C (stereo not drawn) [Compound 418] | 4.25^[a]
28 | CCOC(=O)C(C#N)=C(Nc1ccccc1SC)c1cc(Cl)sc1Cl [Compound 500] | 4.59^[a]
29 | CCOC(=O)C(C#N)=C(NC(C)c1nccs1)c1ccnc(Cl)c1Cl (stereo not drawn) [Compound 1276] | 2.96
30 | COCCNC(=O)C(C#N)=C(NC(C)c1ccccn1)c1cn(C)nc1C(F)F (racemic) [Compound 1288] | 1.75^[a]
31 | CCOC(=O)C(C#N)=C(NC(C)(C)C#Cc1ccc(C)cc1)c1cn(C)nc1C(F)F [Compound 1097] | 4.11^[a]
32 | CCOC(=O)C(C#N)=C(NC(C)C(C)C)c1ccnn1C(F)F (stereo not drawn) [Compound 1645] | 3.27^[a]
33 | CCOC(=O)C(C#N)=C(NC(C)C(C)C)c1cn(C)nc1OC (stereo not drawn) [Compound 969] | 3.06^[a]
34 | C#CC(C)(C)NC(=C(C#N)C(=O)OCC)c1conc1C [Compound 1030] | 2.66^[a]
35 | COC(=O)C(C#N)=C(NC1CCC1)c1cccnc1Cl [Compound 793] | 2.34^[a]

Further lines, results first:

Row | Log P | Structure (SMILES)
36 | 3.5^[a] | CCOC(=O)C(C#N)=C(NC(C)C(C)C)c1cnccc1C(F)(F)F (stereo not drawn) [Compound 982]
37 | 3.89^[a] | CCOC(=O)C(C#N)=C(NC(C)c1ccccc1Br)c1cccnc1Cl (stereo not drawn) [Compound 1530]
38 | 2.98^[a] | CCOC(=O)C(C#N)=C(NCc1ccc(F)cn1)c1sc(C)nc1C(F)(F)F [Compound 204]
39 | 3.37^[a] | CCOC(=O)C(C#N)=C(NCc1nc(C(F)(F)F)cs1)c1sccc1Br [Compound 171]
40 | 2.96^[a] | CCOC(=O)C(C#N)=C(NC(C)c1ccccn1)c1ccnc(CC)c1Cl (racemic) [Compound 1396]
41 | 3.8^[a] | CCOC(=O)C(C#N)=C(Nc1ccccc1OC(C)C)c1cccnc1Cl [Compound 1168]
42 | 3.12^[a] | CCOC(=O)C(C#N)=C(NC(C)c1ccccn1)c1sc(C)nc1C(F)(F)F (racemic) [Compound 146]
43 | 3.31^[a] | CCOC(=O)C(C#N)=C(NC(C)c1nccs1)c1sccc1C(F)(F)F (stereo not drawn) [Compound 96]
44 | 2.9^[a] | CCOC(=O)C(C#N)=C(NC(C)c1sc(C)nc1C)c1ccsc1Br (racemic) [Compound 261]
45 | 1.99^[a] | COC(=O)C(C#N)=C(NC(C)c1ccccn1)c1cccnc1Cl (stereo not drawn) [Compound 110]
46 | 3.9^[a] | CCOC(=O)C(C#N)=C(NC(C)c1ncc(C(F)(F)F)cc1Cl)c1cccnc1Cl (mixture of isomers) [Compound 288]
47 | 2.8^[a] | CCOC(=O)C(C#N)=C(NC(C)CF)c1cc(C)oc1C (stereo not drawn) [Compound 745]
48 | 3.82^[a] | CCOC(=O)/C(C#N)=C(\NC(C)(C)C)c1nc(SC)ncc1Br [Compound 776]
49 | 4.36^[a] | CCOC(=O)C(C#N)=C(Nc1ccccc1OC(C)C)c1sc(C)nc1C(F)(F)F [Compound 519]
50 | 3.71^[a] | CCOC(=O)C(C#N)=C(NC(C(=O)OC)C(C)C)c1ccsc1Br (stereo not drawn) [Compound 716]
51 | 3.96^[a] | CCOC(=O)C(C#N)=C(Nc1ccccc1SC)c1sccc1Br [Compound 366]
52 | 4.26^[a] | CCOC(=O)C(C#N)=C(NC(C)C(C)C)c1cc(Cl)cc(Cl)n1 (stereo not drawn) [Compound 983]
53 | 4.01^[a] | CCOC(=O)C(C#N)=C(Nc1ccc(SC)cc1)c1sccc1Br [Compound 470]
54 | 1.59^[a] | CCOC(=O)C(C#N)=C(NC(C)CN)c1ncc(C(F)(F)F)cc1Cl (racemic) [Compound 589]
55 | 1.91^[a] | CCOC(=O)C(C#N)=C(NCc1ccccn1)c1c(C)nn(C)c1F [Compound 39]
56 | 3.09^[a] | CCOC(=O)C(C#N)=C(NC(C)c1nccs1)c1c(C(F)(F)F)nn(C)c1F (mixture of isomers) [Compound 308]

Row | Log P | Structure (SMILES)
57 | 3.62^[a] | CCOC(=O)C(C#N)=C(NC(C)(C)CSC)c1sc(C)nc1C(F)(F)F [Compound 704]
58 | 3.46^[a] | COC(=O)C(C#N)=C(Nc1ccccc1SC)c1sc(C)nc1C(F)(F)F [Compound 428]
59 | 4.36^[a] | CCOC(=O)C(C#N)=C(NC(C)C1CC1)c1cc(Cl)sc1Cl (stereo not drawn) [Compound 887]
60 | 4.04^[a] | CCOC(=O)C(C#N)=C(Nc1cccc(SC)c1)c1sccc1C(F)(F)F [Compound 482]
61 | 2.94^[a] | CCOC(=O)C(C#N)=C(NC(C)c1nc(C)c(C)s1)c1c(C)nn(C)c1F (racemic) [Compound 45]
62 | 3.31^[a] | COC(=O)C(C#N)=C(Nc1ccc(N(C)C)cc1)c1sc(C)nc1C(F)(F)F [Compound 486]
63 | 3.06^[a] | COC(=O)C(C#N)=C(Nc1ccc(OC)cc1)c1sc(C)nc1C(F)(F)F [Compound 485]
64 | 4^[a] | CCOC(=O)C(C#N)=C(NC(C)c1csc(-c2ccccc2)n1)c1cccnc1Cl (stereo not drawn) [Compound 1447]
65 | 4.36^[a] | CCOC(=O)C(C#N)=C(NC(C)CCc1ccccc1)c1sc(C)nc1C(F)(F)F (mixture of isomers) [Compound 449]
66 | 4.04^[a] | CCOC(=O)C(C#N)=C(NC(C)c1nc(C)c(C)s1)c1ncc(C(F)(F)F)cc1Cl (racemic) [Compound 37]
67 | 5.03^[a] | CCCCCC(C)NC(=C(C#N)C(=O)OCC)c1sccc1Br (racemic) [Compound 846]
68 | 2.41^[a] | CCOC(=O)C(C#N)=C(NC(C)c1ccccn1)c1cc(Cl)sc1Cl (racemic) [Compound 222]
69 | 3.7^[a] | CCOC(=O)C(C#N)=C(NC(C)c1nc(C)c(C)s1)c1ccsc1Br (stereo not drawn) [Compound 112]
70 | 3.76^[a] | CCOC(=O)C(C#N)=C(Nc1ccc(N(C)C)cc1)c1sccc1Br [Compound 489]
71 | 3.37^[a] | CCOC(=O)C(C#N)=C(NC(C)c1nc(C)c(C)s1)c1c(C(F)F)nn(C)c1Cl (racemic) [Compound 235]
72 | 3.35^[a] | CCOC(=O)C(C#N)=C(NC(C)c1ccccn1)c1nsc(Cl)c1Cl (stereo not drawn) [Compound 71]
73 | 2.67^[a] | CCOC(=O)C(C#N)=C(NCc1nccs1)c1sccc1Br [Compound 88]
74 | 2.4^[a] | CCOC(=O)C(C#N)=C(NC(C)c1nccs1)c1conc1C (stereo not drawn) [Compound 77]
75 | 3.44^[a] | CCOC(=O)C(C#N)=C(NC(C)c1nc(C)cs1)c1sccc1Br (single isomer, unassigned) [Compound 167]
76 | 4.21^[a] | C=CC(COCc1ccccc1)NC(=C(C#N)C(=O)OCC)c1sc(C)nc1C(F)(F)F (stereo not drawn) [Compound 692]
77 | 2.96^[a] | CCOC(=O)C(C)NC(=C(C#N)C(=O)OC)c1sc(C)nc1C(F)(F)F (racemic) [Compound 664]

Same assay, conditions: pH 7.5

Row | Structure (SMILES) | Log P
78 | COC(=O)C(C#N)=C(NC(C)c1nc(C)c(C)s1)c1cccnc1Cl (stereo not drawn) [Compound 19] | 2.69
79 | CNC(=O)C(C#N)=C(NC(C)C(C)C)c1cccnc1Cl (stereo not drawn) [Compound 989] | 2.41^[c]; 2.41^[b]
80 | C=CCOC(=O)C(C#N)=C(NC(C)c1nccs1)c1ccc(Cl)nc1Cl (stereo not drawn) [Compound 1450] | 3.16
81 | COC(=O)C(C#N)=C(N[C@@H](C)C1CCCCC1)c1cccnc1Cl [Compound 870] | 3.76
82 | CCOC(=O)C(C#N)=C(NC(C)c1nccs1)c1cccnc1C (racemic) [Compound 152] | 2.17
83 | CCOC(=O)C(C#N)=C(NC(C)c1nccs1)c1ccnc(Cl)c1Cl (stereo not drawn) [Compound 1276] | 2.91
84 | CCOC(=O)C(C#N)=C(Nc1ccccc1SC)c1ccc(Cl)nc1Cl [Compound 360] | 3.79
